# Measured values as given in patent US9040524B2, “Antifungal 5,6-dihydro-4H-pyrrolo[1,2-a][1,4]-benzodiazepines and 6H-pyrrolo[1,2-a][1,4]benzodiazepines substituted with bicycle benzene derivatives” (JANSSEN PHARMACEUTICA NV, priority 2010, dated 2015).
# Tests used:
# Format in all cases: cell-based
# [1] = test system: Microsporum canis; experiment: Antifungal activity in vitro, resazurin growth inhibition screen: Microsporum canis; conditions: Microsporum canis B68128; for IC50: read-out: Inf. B pIC50 (converted)
# In short: (§1)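 Growth inhibition is measured with resazurin against untreated fungal culture (100%) and medium blank (0%). Isolates thawed from cryostocks give 10^3 cfu per well in RPMI-MOPS. The dose range peaks at 64 μM in test.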
# [2] = test system: Trichophyton mentagrophytes; experiment: Antifungal activity in vitro, resazurin growth inhibition screen: Trichophyton mentagrophytes; conditions: Trichophyton mentagrophytes B70554; for IC50: read-out: Inf. G pIC50 (converted)
# In short: as §1
# [3] = test system: Trichophyton rubrum; experiment: Antifungal activity in vitro, resazurin growth inhibition screen: Trichophyton rubrum; conditions: Trichophyton rubrum B68183; for IC50: read-out: Inf. C pIC50 (converted)
# In short: as §1
# [4] = test system: Scedosporium apiospermum; experiment: Antifungal activity in vitro, resazurin growth inhibition screen: Scedosporium apiospermum; conditions: Scedosporium apiospermum IHEM3817; for IC50: read-out: Inf. H pIC50 (converted)
# Procedure: (§2) The standard susceptibility screen was performed in 96-well plates (U-bottom, Greiner Bio-One). Serial dilutions (2-fold or 4-fold) of 20 mM compound stock solutions were made in 100% DMSO, followed by an intermediate dilution step in water. These serial dilutions (10 μl) were then spotted onto test-plates that could be stored in the dark at 4° C. for a maximum period of 2 weeks. An adequate broad dose-range was included with 64 μM as the highest in-test concentration. […] The different fungal species/isolates (Table 3a) were cryopreserved and 1/1000 diluted in medium just prior to use. A standard inoculum of 200 μl containing 10^3 colony-forming unit (cfu) was then added to each well. A positive control (100% growth=fungal culture without antifungal) and a negative control (0% growth=RPMI-MOPS medium) were included on each plate.
# [5] = test system: Scedosporium prolificans; experiment: Antifungal activity in vitro, resazurin growth inhibition screen: Scedosporium prolificans; conditions: Scedosporium prolificans IHEM21157; for IC50: Lomentospora prolificans, read-out: Inf. I pIC50 (converted)
# Procedure: as §2
# [6] = test system: Sporothrix schenkii; experiment: Antifungal activity in vitro, resazurin growth inhibition screen: Sporothrix schenkii; conditions: Sporothrix schenkii B62482; for IC50: read-out: Inf. A pIC50 (converted)
# In short: as §1
# [7] = test system: Aspergillus fumigatus; experiment: Antifungal activity in vitro, resazurin growth inhibition screen: Aspergillus fumigatus; conditions: Aspergillus fumigatus B42928; for IC50: read-out: Inf. E pIC50 (converted)
# In short: as §1
# [8] = test system: Candida parapsilosis; experiment: Antifungal activity in vitro, resazurin growth inhibition screen: Candida parapsilosis; conditions: Candida parapsilosis B66126; for IC50: Lodderomyces parapsilosis, read-out: Inf. D pIC50 (converted)
# In short: as §1
# [9] = test system: Cryptococcus neoformans; experiment: Antifungal activity in vitro, resazurin growth inhibition screen: Cryptococcus neoformans; conditions: Cryptococcus neoformans B66663; for IC50: read-out: Inf. F pIC50 (converted)
# In short: as §1
# [10] = test system: Rhizopus oryzae; experiment: Antifungal activity in vitro, resazurin growth inhibition screen: Rhizopus oryzae; conditions: Rhizopus oryzae IHEM5223; for IC50: Rhizopus arrhizus, read-out: Inf. J pIC50 (converted)
# Procedure: as §2
# [11] = test system: Rhizomucor miehei; experiment: Antifungal activity in vitro, resazurin growth inhibition screen: Rhizomucor miehei; conditions: Rhizomucor miehei IHEM13391; for IC50: read-out: Inf. K pIC50 (converted)
# Procedure: as §2
SMILES,Inf. B pIC50 [1],Inf. G pIC50 [2],Inf. C pIC50 [3],Inf. H pIC50 [4],Inf. I pIC50 [5],Inf. A pIC50 [6],Inf. E pIC50 [7],Inf. D pIC50 [8],Inf. F pIC50 [9],Inf. J pIC50 [10],Inf. K pIC50 [11],also measured
"Clc1cccc2c1CN=C(c1ccc3c(c1)CCOC3)c1cccn1-2 [Compound 37, 7-chloro-4-(3,4-dihydro-1H-2-benzopyran-6-yl)-6H-pyrrolo[1,2-a][1,4]benzo-diazepine]",6.62,6.47,6.89,4.48,5.85,5.26,6.77,5.79,5.88,<4.19,<4.19,–
"Clc1cc(Cl)c2c(c1)-n1cccc1C(c1ccc3c(c1)CCC3)=NC2 [Compound 23, 7,9-dichloro-4-(2,3-dihydro-1H-inden-5-yl)-6H-pyrrolo[1,2-a][1,4]benzodiazepine]",–,–,–,–,–,–,–,–,–,–,–,IC50 [1]: 1000 nM; IC50 [2]: 794 nM; IC50 [3]: 676 nM; IC50 [4]: 24000 nM; IC50 [5]: 603 nM; IC50 [6]: 33900 nM; IC50 [7]: 912 nM; IC50 [8]: 2000 nM; IC50 [9]: 457 nM; IC50 [10]: > 64600 nM; IC50 [11]: > 64600 nM
"FC1(F)Oc2ccc(C3=NCc4cccc(Cl)c4-n4cccc43)cc2O1 [Compound 76, 10-chloro-4-(2,2-difluoro-1,3-benzodioxol-5-yl)-6H-pyrrolo[1,2-a][1,4]benzo-diazepine]",6.70,6.38,6.82,5.13,5.04,5.69,5.94,5.18,5.82,4.57,4.98,–
"Br.Clc1cccc2c1CNC(c1ccc3c(c1)CCC3)c1cccn1-2 (stereo not shown) [Compound 13, 7-chloro-4-(2,3-dihydro-1H-inden-5-yl)-5,6-dihydro-4H-pyrrolo[1,2-a][1,4]benzo-diazepine .HBr]",6.36,6.95,6.47,4.52,5.72,5.15,5.70,5.52,5.30,<4.19,<4.19,–
"FC1(F)Oc2ccc(C3=NCc4ccc(Cl)cc4-n4cccc43)cc2O1 [Compound 75, 9-chloro-4-(2,2-difluoro-1,3-benzodioxol-5-yl)-6H-pyrrolo[1,2-a][1,4]benzo-diazepine]",5.74,6.42,6.85,<4.19,<4.19,4.85,6.24,5.09,5.84,<4.19,<4.19,–
"FC1(F)Oc2ccc(C3=NCc4c(Cl)cc(Cl)cc4-n4cccc43)cc2O1 [Compound 79, 7,9-dichloro-4-(2,2-difluoro-1,3-benzodioxol-5-yl)-6H-pyrrolo[1,2-a][1,4]benzo-diazepine]",6.28,5.79,6.29,5.72,5.98,4.90,5.71,5.62,5.60,<4.19,<4.19,–
"Fc1cccc2c1CN=C(c1ccc3c(c1)CCOC3)c1cccn1-2 [Compound 39, 4-(3,4-dihydro-1H-2-benzopyran-6-yl)-7-fluoro-6H-pyrrolo[1,2-a][1,4]benzo-diazepine]",6.36,6.54,6.89,5.40,5.76,4.95,6.77,5.83,5.21,<4.19,4.38,–
"Fc1cccc2c1CN=C(c1ccc3c(c1)OC(F)(F)O3)c1cccn1-2 [Compound 77, 4-(2,2-difluoro-1,3-benzodioxol-5-yl)-7-fluoro-6H-pyrrolo[1,2-a][1,4]benzo-diazepine]",–,–,–,–,–,–,–,–,–,–,–,IC50 [1]: 135 nM; IC50 [2]: 115 nM; IC50 [3]: 19.5 nM; IC50 [4]: 22400 nM; IC50 [5]: 1740 nM; IC50 [6]: 3550 nM; IC50 [7]: 56.2 nM; IC50 [8]: 3390 nM; IC50 [9]: 5370 nM; IC50 [10]: 12000 nM; IC50 [11]: > 64600 nM
"Clc1cc(Cl)c2c(c1)CN=C(c1ccc3c(c1)CCO3)c1cccn1-2 [Compound 48, 8,10-dichloro-4-(2,3-dihydro-5-benzofuranyl)-6H-pyrrolo[1,2-a][1,4]benzo-diazepine]",6.30,6.29,6.78,4.94,5.79,5.40,5.00,<4.19,5.70,<4.19,<4.19,–
"Fc1cc(F)c2c(c1)-n1cccc1C(c1ccc3c(c1)OC(F)(F)O3)=NC2 [Compound 78, 4-(2,2-difluoro-1,3-benzodioxol-5-yl)-7,9-difluoro-6H-pyrrolo[1,2-a][1,4]benzo-diazepine]",6.26,6.24,6.85,4.19,5.98,5.28,6.44,5.64,<4.19,<4.19,<4.19,–
"FC1(F)Oc2ccc(C3=NCc4c(Cl)cccc4-n4cccc43)cc2O1 [Compound 74, 7-chloro-4-(2,2-difluoro-1,3-benzodioxol-5-yl)-6H-pyrrolo[1,2-a][1,4]benzo-diazepine]",6.87,6.58,7.39,5.5,7.05,<4.19,7.08,<4.19,<4.19,<4.19,<4.19,–
"O=C1CCCc2cc(C3=NCc4c(F)cccc4-n4cccc43)ccc21 [Compound 59, 6-(7-fluoro-6H-pyrrolo[1,2-a][1,4]benzodiazepin-4-yl)-3,4-dihydro-1(2H)-naphthalenone]",–,–,–,–,–,–,–,–,–,–,–,IC50 [1]: 372 nM; IC50 [2]: 339 nM; IC50 [3]: 129 nM; IC50 [4]: 741 nM; IC50 [5]: 1480 nM; IC50 [6]: 4270 nM; IC50 [7]: 398 nM; IC50 [8]: 2750 nM; IC50 [9]: 1120 nM; IC50 [10]: > 12900 nM; IC50 [11]: 1480 nM
"Cl.Clc1cccc2c1CNC(c1ccc3c(c1)CCOC3)c1cccn1-2 (stereo not shown) [Compound 28, 7-chloro-4-(3,4-dihydro-1H-2-benzopyran-6-yl)-5,6-dihydro-4H-pyrrolo[1,2-a]-[1,4]benzodiazepine .HCl]",6.24,6.29,6.66,4.97,4.63,<4.19,5.99,5.53,4.71,<4.19,4.39,–
"Cl.O=C1CCc2cc(C3NCc4c(Cl)cccc4-n4cccc43)ccc21 (stereo not shown) [Compound 51, 5-(7-chloro-5,6-dihydro-4H-pyrrolo[1,2-a][1,4]benzodiazepin-4-yl)-2,3-dihydro-1H-inden-1-one .HCl]",5.59,5.32,5.84,4.67,5.32,4.46,5.24,4.91,4.74,<4.19,4.29,–
